Values quoted from earlier work in US5556638A, “Flurbiprofen-containing immediate-effect medicament and its use” (Alfatec Pharma GMBH, priority 1991, dated 1996).

Columns and labels:
[1] = racemate
[2] = prior art
pain = settings: optical antipodes of flurbiprofen
inflammation = settings: optical antipodes of flurbiprofen

CC(C(=O)O)c1ccc(-c2ccccc2)c(F)c1 (racemic) [Racemic flurbiprofen]
undesirable side effects [1]: significant undesirable side effects | time until therapeutic concentrations are achieved ([2]; racemic flurbiprofen): 4 to 5 h | tmax ([2]; racemic flurbiprofen, blood level maximum): 1 to 2 h

C[C@@H](C(=O)O)c1ccc(-c2ccccc2)c(F)c1 [R-flurbiprofen]
analgesic action (pain): pronounced analgesic action

C[C@H](C(=O)O)c1ccc(-c2ccccc2)c(F)c1 [S-flurbiprofen]
anti-inflammatory action (inflammation): marked anti-inflammatory action

CC(C(=O)O)c1ccc(-c2ccccc2)c(F)c1 (stereo not drawn) [flurbiprofen, 2-(2-fluoro-4-biphenylyl)propionic acid]
site of absorption ([2]; oral): only absorbed in the upper small intestine
